# “And” between values parts separate entries of the source, which are not always exact repeats. Equal entries are not always repeated. “Also recorded” adds a separate entry of the source.
# Legend:
# [1] = tested on: Draining Lymph Nodes (LNs) from the Normal Breast Tissue; assay: Dynamic micro-MR mammo-lymphangiography after injection into normal mammary gland (Example 1); type: in vivo, mice
# Description: Mice were anesthetized with 1.15 mg sodium pentobarbital (Dainabot, Osaka, Japan), and then injected with 0.15-0.24 μmol Gd/5-8 μL of the PAMAM-G6 contrast agent into normal mammary glands or mammary tissue surrounding a tumor (peritumorally). Dynamic micro-MR images were obtained using a 1.5-Tesla superconductive magnet unit (Signa LX, General Electric Medical System, Milwaukee, Wis.) with a birdcage type coil of 3 cm diameter fixed by a custom made coil holder. Single and double “breast coils” used for imaging breasts in humans are commercially available, for example, from GE Medical Systems (Milwaukee, Wis.) and are routinely available in outpatient MRI centers. The mice were wrapped with gauze to stabilize their body temperature and were placed at the center of the coils.
# In order to evaluate the lymphatic drainage from the normal mammary gland of either Balb/c mice (n=5) or athymic nu/nu mice (n=5), 3D-fast spoiled gradient echo (3D-fastSPGR (efgre3d package; Signa Horizon, GE); repetition time/echo time 19.2/7.2 msec; inversion time 47 msec; 31.2 kHz, flip angle 30°, 4 excitations; 36 slice encoding steps; scan time 4 min 49 seconds) with chemical shift fat-suppression was used 6, 12, 18, 24, 30, 36, 42, and 48 min after injection of the contrast agent. The coronal images were reconstructed with 0.6-mm section thickness every 0.3-mm. The field of view was 8×4 cm and the size of the matrix was 512×256. The slice data were processed into 3D images using the maximum intensity projection (MIP) method with the same window and level (window 3500 and level 2100) (Advantage Windows, General Electric Medical System). After imaging, the mice were sacrificed by carbon dioxide inhalation.
# Athymic nu/nu mice (n=4) were anesthetized and injected with 0.15 μmol Gd of GPDM into the mammary gland, and images were taken 12, 24, and 36 min after injection. Following these three images, these mice were subsequently injected with 0.15 μmol Gd of PAMAM-G6 contrast agent in the mammary gland, and images were taken at 12 and 24 min post-injection of the PAMAM-G6 contrast agent (at 48 and 60 min post-injection of GPDM).
# [2] = tested on: axillary lymph nodes and their lymphatic vessels; assay: Dynamic 3D-MR lymphangiography, effect of contrast agent size (Example 4); type: in vivo, athymic nu/nu mice; conditions: for Signal intensity within the axillary lymph node (enhancement ratio, lymph node / adjacent muscle): 0.15 μmolGd/5 μL
# Description: Mice were anesthetized with 1.15 mg sodium pentobarbital (Dainabot, Osaka, Japan) by intraperitoneal injection. Then 0.15 μmolGd/5 μL of all nano-size contrast agents or 0.45 μmolGd/5 μL of Gd-[DTPA]-dimeglumine were injected into normal mammary glands or mammary tissue surrounding a tumor. Dynamic MR images were obtained using a 1.5-Tesla superconductive magnet unit (Signa LX, General Electric Medical System, Milwaukee, Wis.) with a birdcage type coil of 3 cm diameter fixed by a custom-made coil holder. The mice were wrapped with gauze to conserve their body temperature and were placed at the center of the coils.
# In order to evaluate the effect of contrast agent molecular size on the ability to visualize the lymphatics and lymph nodes of athymic nu/nu mice, thirty five non-tumor bearing nu/nu mice were divided into seven groups (n=5). The mice were evaluated with 3D-fast spoiled gradient echo (3D-fastSPGR (efgre3d package; Signa Horizon, GE); repetition time/echo time 19.2/7.2 msec; inversion time 47 msec; bandwidth 31.2 kHz, flip angle 30°, 4 excitations; 36 slice encoding steps; scan time 4 minutes 49 seconds) with chemical shift fat-suppression at 6, 12, 18, 24, 30, and 36 minutes post-injection of each contrast agent. The coronal images were reconstructed with 0.6-mm section thickness every 0.3-mm. The field of view was 8×4 cm and the size of the matrix was 512×256. The slice data were processed into 3D images using the maximum intensity projection (MIP) method with the same window and level (window 3500 and level 2100) (Advantage Windows, General Electric Medical System). The enhancement ratio was calculated by taking the average signal intensity in the axillary lymph node and dividing it by the signal intensity in the adjacent muscle.
# [3] = Serum phantoms: T1-weighted MRI signal intensity vs G6 agent concentration; type: physicochemical; conditions: FIG. 21B
# Description: In order to verify the correlation between T1-weighted MRI signal intensity and concentration of G6 agent, serum phantoms were made containing various concentrations of the G6 agent with a bovine serum (GIBCO, Invitrogen Co., Carlsbad, Calif.) and MR images were obtained with the same imaging technique as shown above. Three sets of phantoms, high ([…]-40 mMGd), intermediate (0.1-1 mMGd) and low (0.01-0.1 mMGd) concentrations, were studied. A sample of Gd-DTPA was used as an internal control.
# [4] = in vivo
substance,measurement,setting,value
PAMAM-G6D-(Gd-1B4M)256 dendrimer conjugate,"Visualized LNs/Total Examined LNs, Axillary LN",[1]; 6 min after injection,visualized at the initial (6 min) time point in all 10 mice and 10/10
same,"Visualized LNs/Total Examined LNs, Lateral thoracic LN",[1]; 6 min after injection,0/10
same,"Visualized LNs/Total Examined LNs, Superficial cervical LN",[1]; 6 min after injection,1/10
same,"Visualized LNs/Total Examined LNs, Axillary LN",[1]; 12 min after injection,10/10
same,"Visualized LNs/Total Examined LNs, Lateral thoracic LN",[1]; 12 min after injection,1/10
same,"Visualized LNs/Total Examined LNs, Superficial cervical LN",[1]; 12 min after injection,1/10
same,"Visualized LNs/Total Examined LNs, Axillary LN",[1]; 18 min after injection,10/10
same,"Visualized LNs/Total Examined LNs, Lateral thoracic LN",[1]; 18 min after injection,2/10
same,"Visualized LNs/Total Examined LNs, Superficial cervical LN",[1]; 18 min after injection,1/10
same,"Visualized LNs/Total Examined LNs, Axillary LN",[1]; 24 min after injection,10/10
same,"Visualized LNs/Total Examined LNs, Lateral thoracic LN",[1]; 24 min after injection,4/10
same,"Visualized LNs/Total Examined LNs, Superficial cervical LN",[1]; 24 min after injection,2/10
same,"Visualized LNs/Total Examined LNs, Axillary LN",[1]; 30 min after injection,10/10
same,"Visualized LNs/Total Examined LNs, Lateral thoracic LN",[1]; 30 min after injection,4/10
same,"Visualized LNs/Total Examined LNs, Superficial cervical LN",[1]; 30 min after injection,2/10
same,"Visualized LNs/Total Examined LNs, Axillary LN",[1]; 36 min after injection,10/10
same,"Visualized LNs/Total Examined LNs, Lateral thoracic LN",[1]; 36 min after injection,5/10
same,"Visualized LNs/Total Examined LNs, Superficial cervical LN",[1]; 36 min after injection,3/10
same,"Visualized LNs/Total Examined LNs, Axillary LN",[1]; 42 min after injection,10/10
same,"Visualized LNs/Total Examined LNs, Lateral thoracic LN",[1]; 42 min after injection,6/10
same,"Visualized LNs/Total Examined LNs, Superficial cervical LN",[1]; 42 min after injection,3/10
same,"Visualized LNs/Total Examined LNs, Axillary LN",[1]; 48 min after injection,10/10
same,"Visualized LNs/Total Examined LNs, Lateral thoracic LN",[1]; 48 min after injection,6/10
same,"Visualized LNs/Total Examined LNs, Superficial cervical LN",[1]; 48 min after injection,3/10
same,Visualization of draining lymph nodes and lymphatic vessels (FIG. 5),"[1]; athymic nu/nu mice, 0.15 μmol Gd into the mammary gland, GPDM imaged at 12, 24, 36 min, then PAMAM-G6",clearly visualized
same,Visualization of axillary lymph nodes and their lymphatic vessels,"[2]; 6-36 minutes post-injection into mammary gland, listed as G6",earliest and most intense opacification of the sentinel lymph nodes; also recorded: visualized at all time points in all 10 mice
same,"Signal intensity within the axillary lymph node (enhancement ratio, lymph node / adjacent muscle)",[2]; 6 minutes post-injection,2.6±0.2
same,"Signal intensity within the axillary lymph node (enhancement ratio, lymph node / adjacent muscle)",[2]; 12 minutes post-injection,2.9±0.3
same,T1 relaxivity,[3],much higher T1 relaxivity than Gd-DTPA
same,Survival in the lymph system,[4],intermediate survival period in the lymph system

# Reference: US20060204443A1, “Methods for tumor treatment using dendrimer conjugates” (The Government of the USA as represented by the Secretary …, priority 2005, published 2006)
